From publication PMC8529588 (Nature chemical biology, 2021)
Where no end group is shown, it is not given here. [ ]: non-standard residue; d: D form. The star is where a group is joined. Biotin = O=C1N[C@H]2[C@H](CS[C@H]2CCCCC(=O)*)N1; pT = C[C@@H](OP(=O)(O)O)[C@H](N)C(=O)O

T1: Fbxo48-V5 (Homo sapiens, UniProt Q5FWF7)
T1 sequence (Q5FWF7 1-155): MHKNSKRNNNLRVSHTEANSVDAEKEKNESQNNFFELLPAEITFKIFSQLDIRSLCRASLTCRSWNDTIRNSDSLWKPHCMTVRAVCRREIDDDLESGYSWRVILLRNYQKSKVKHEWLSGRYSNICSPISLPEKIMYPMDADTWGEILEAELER

T2: Purified human Fbxo48 protein (recombinant, HIS-tagged) (human, UniProt Q5FWF7 1-155)
T2 sequence: T1 sequence (Q5FWF7 1-155)


Experiments:
Fbxo48-V5 = target: T1, Fbxo48-V5; test: cellular thermal shift assay; assay type: cell-based; settings: 3 μM BC1618, 30 min, HEK293/293T cells; Fbxo30-V5 as negative control
[1] = target: T2, Purified human Fbxo48 protein …; test: pull-down

Molecule | cellular thermal shift assay (CETSA), immunoblot (Fbxo48-V5) | binding result [1]
OC(COc1ccc(C(F)(F)F)cc1)CN(Cc1ccccc1)Cc1ccccc1 (centres unmarked) [compound 2, BC1618] | BC1618 directly interacted with Fbxo48 but not Fbxo30 (negative control) | –
Biotin-DGEFLR[pT]SCGSPN [phospho-Ampkα peptide (Biotin-DGEFLRT(p)SCGSPN)] | – | binds
